Source: the Deep4Chem optical property database

Assay: photoluminescence quantum yield (fraction); solvent given as SMILES

With `COc1ccc(C2=C(c3ccc(OC)cc3)C(C)(C)c3ccc4ccccc4c32)cc1` as the molecule, how does the photoluminescence quantum yield (in C1CCCCC1) read?
Its photoluminescence quantum yield is 0.11.

What does the source list for `CC(=O)c1ccc(-c2nc3ccc(N(C)C)c(Br)c3s2)cc1`?
photoluminescence quantum yield (in C1CCCCC1): 0.11; photoluminescence quantum yield (in CC#N): 0.54; photoluminescence quantum yield (in CO): 0.046; photoluminescence quantum yield (in ClC(Cl)Cl): 0.82

For `N#C/C(=C\c1ccc(C=C(c2ccccc2)c2ccccc2)cc1)c1ccccc1`, which photoluminescence quantum yield (in C1CCOC1) is on record?
The photoluminescence quantum yield was 0.045.

Which photoluminescence quantum yield (in C1COCCO1) does the source give for `N#Cc1cccc2c(N)c(-c3nn([C@H]4C[C@H](O)[C@@H](CO)O4)c4ncnc(N)c34)ccc12` here?
Its photoluminescence quantum yield is 0.47.

What about the photoluminescence quantum yield (in CC#N) of the same molecule?
The photoluminescence quantum yield was 0.23.

What about the photoluminescence quantum yield (in CC(C)O) of the same molecule?
Its photoluminescence quantum yield is 0.19.

And the photoluminescence quantum yield (in CCO)?
Its photoluminescence quantum yield is 0.13.

What about the photoluminescence quantum yield (in CCOC(C)=O) of the same molecule?
The photoluminescence quantum yield was 0.29.

And the photoluminescence quantum yield (in CN(C)C=O)?
Its photoluminescence quantum yield is 0.21.

And the photoluminescence quantum yield (in CO)?
Its photoluminescence quantum yield is 0.07.

And the photoluminescence quantum yield (in CS(C)=O)?
Its photoluminescence quantum yield is 0.18.

And the photoluminescence quantum yield (in OCC(O)CO)?
Its photoluminescence quantum yield is 0.12.

What about the photoluminescence quantum yield (in OCCO) of the same molecule?
Its photoluminescence quantum yield is 0.08.

Which photoluminescence quantum yield (in ClCCl) does the source give for `CC1=C(c2ccc(N(c3ccccc3)c3ccccc3)cc2)C(C)=[N+]2C1=C(c1c(-c3ccccn3)nc3ccccn13)c1c(C)c(-c3ccc(N(c4ccccc4)c4ccccc4)cc3)c(C)n1[B-]2(F)F` here?
The photoluminescence quantum yield was 0.0078.

With `F[B-]1(F)n2cccc2C(c2ccccc2)=C2C=CC(c3cccc(OC4=[N+]5C(=C(c6ccccc6)c6cc(Br)c(Br)n6[B-]5(F)F)C=C4Br)c3)=[N+]21` as the molecule, how does the photoluminescence quantum yield (in ClC(Cl)Cl) read?
Its photoluminescence quantum yield is 0.28.

Which photoluminescence quantum yield (in ClCCl) does the source give for `c1ccc(B2Nc3cc4c(cc3-c3occc32)NB(c2ccccc2)c2ccoc2-4)cc1` here?
Its photoluminescence quantum yield is 0.26.

For `CCOC(=O)C(Cc1ccc(O[Si]2(Oc3ccc(CC(NC(C)=O)C(=O)OCC)cc3)n3c4c5ccccc5c3/N=C3N=C(/N=c5/c6ccccc6/c(n52)=N/C2=NC(=N\4)/c4ccccc42)c2ccccc2\3)cc1)NC(C)=O` (centres undefined), which photoluminescence quantum yield (in CN(C)C=O) is on record?
The photoluminescence quantum yield was 0.11.

For `CCCCCCCCc1ccc(-c2ccc(/C=C(\C#N)c3ccc(-c4cccc5cccc(-c6ccc(/C(C#N)=C/c7ccc(-c8ccc(CCCCCCCC)cc8)cc7)cc6)c45)cc3)cc2)cc1`, which photoluminescence quantum yield (in Cc1ccccc1) is on record?
Its photoluminescence quantum yield is 0.12.

Which photoluminescence quantum yield (in ClC(Cl)Cl) does the source give for `Cc1ccc(/C2=c3\cc/c(o3)=C(\c3ccc(C)cc3)c3ccc([nH]3)-c3ccc4n3[B-](F)(F)[N+]3=C(C=CC3=C4c3cccs3)c3ccc2[nH]3)cc1` here?
Its photoluminescence quantum yield is 0.09.

Which results are given for `C=Cc1cc(OC)cc(OC)c1`?
photoluminescence quantum yield (in C1CCCCC1): 0.12; photoluminescence quantum yield (in CC#N): 0.5

For `COC(=O)c1ccc(C2=C3C(C)=CC(C)=[N+]3[B-](F)(F)n3c(/C=C/c4c[nH]cn4)cc(C)c32)cc1`, which photoluminescence quantum yield (in ClC(Cl)Cl) is on record?
Its photoluminescence quantum yield is 0.93.

With `N#Cc1ccc(/C=C2\OC(=O)c3cc(N)ccc32)cc1` as the molecule, how does the photoluminescence quantum yield (in CC#N) read?
The photoluminescence quantum yield was 0.062.

What about the photoluminescence quantum yield (in CC(C)=O) of the same molecule?
Its photoluminescence quantum yield is 0.05.

What about the photoluminescence quantum yield (in CC(C)CO) of the same molecule?
The photoluminescence quantum yield was 0.17.

What about the photoluminescence quantum yield (in CC(C)O) of the same molecule?
The photoluminescence quantum yield was 0.16.

What about the photoluminescence quantum yield (in CCCO) of the same molecule?
Its photoluminescence quantum yield is 0.14.

And the photoluminescence quantum yield (in CCO)?
Its photoluminescence quantum yield is 0.13.

And the photoluminescence quantum yield (in CCOC(C)=O)?
Its photoluminescence quantum yield is 0.047.

And the photoluminescence quantum yield (in CCOCC)?
Its photoluminescence quantum yield is 0.031.

What about the photoluminescence quantum yield (in CO) of the same molecule?
Its photoluminescence quantum yield is 0.11.

With `CCCCNC(=O)c1sc(-c2ccc(-c3cc(-c4ccc(C(C)(C)C)cc4)c(C(=O)NCCCC)s3)s2)cc1-c1ccc(C(C)(C)C)cc1` as the molecule, how does the photoluminescence quantum yield (in ClCCl) read?
Its photoluminescence quantum yield is 0.32.

For `c1ccc(-c2nc(-c3ccccc3)nc(-c3ccc(-n4c5ccccc5c5ccc6c7ccccc7n(-c7ccccc7)c6c54)cc3)n2)cc1`, which photoluminescence quantum yield (in O=P(c1ccccc1)(c1ccccc1)c1ccc2oc3ccc(P(=O)(c4ccccc4)c4ccccc4)cc3c2c1) is on record?
The photoluminescence quantum yield was 0.84.

Which results are given for `O=C1c2ccc(-c3ccc(N(c4ccc(-c5ccccc5)cc4)c4ccc(-c5ccccc5)cc4)cc3)cc2C(=O)c2ccc(-c3ccc(N(c4ccc(-c5ccccc5)cc4)c4ccc(-c5ccccc5)cc4)cc3)cc21`?
photoluminescence quantum yield (in Cc1ccccc1): 0.62; photoluminescence quantum yield (in c1ccc2c(c1)c1ccccc1n2-c1ccc(-c2ccc(-n3c4ccccc4c4ccccc43)cc2)cc1): 0.76

With `O=C1C2=C(O[B-](F)(F)[n+]3c2ccc2ccccc23)c2ccc(N3CCOCC3)c3cccc1c23` as the molecule, how does the photoluminescence quantum yield (in C1CCOC1) read?
Its photoluminescence quantum yield is 0.55.

And the photoluminescence quantum yield (in CC#N)?
Its photoluminescence quantum yield is 0.49.

What about the photoluminescence quantum yield (in CCO) of the same molecule?
The photoluminescence quantum yield was 0.46.

And the photoluminescence quantum yield (in CO)?
Its photoluminescence quantum yield is 0.45.

And the photoluminescence quantum yield (in ClCCl)?
The photoluminescence quantum yield was 0.53.

For `CCCN1c2ccccc2Sc2cc(/C=C\c3cc(=O)oc4cc(NC(=O)OCC)ccc34)ccc21`, which photoluminescence quantum yield (in ClC(Cl)Cl) is on record?
Its photoluminescence quantum yield is 0.62.
